The source made the active and inactive calls. No stated cut-off is given here; in the data, actives have a measured IC50 and inactives only a lower limit.

The assay deals with Envelope glycoprotein gp160 (Human immunodeficiency virus 1, UniProt Q6QLK5). The assay is described as follows: cell-free HIV fusion peptide-binding blockers – biochemical, uHTS, fluorescence dequenching, […] (AID 1986).
Sequence of Envelope glycoprotein gp160 (Q6QLK5 whole entry, the tested form may be a part): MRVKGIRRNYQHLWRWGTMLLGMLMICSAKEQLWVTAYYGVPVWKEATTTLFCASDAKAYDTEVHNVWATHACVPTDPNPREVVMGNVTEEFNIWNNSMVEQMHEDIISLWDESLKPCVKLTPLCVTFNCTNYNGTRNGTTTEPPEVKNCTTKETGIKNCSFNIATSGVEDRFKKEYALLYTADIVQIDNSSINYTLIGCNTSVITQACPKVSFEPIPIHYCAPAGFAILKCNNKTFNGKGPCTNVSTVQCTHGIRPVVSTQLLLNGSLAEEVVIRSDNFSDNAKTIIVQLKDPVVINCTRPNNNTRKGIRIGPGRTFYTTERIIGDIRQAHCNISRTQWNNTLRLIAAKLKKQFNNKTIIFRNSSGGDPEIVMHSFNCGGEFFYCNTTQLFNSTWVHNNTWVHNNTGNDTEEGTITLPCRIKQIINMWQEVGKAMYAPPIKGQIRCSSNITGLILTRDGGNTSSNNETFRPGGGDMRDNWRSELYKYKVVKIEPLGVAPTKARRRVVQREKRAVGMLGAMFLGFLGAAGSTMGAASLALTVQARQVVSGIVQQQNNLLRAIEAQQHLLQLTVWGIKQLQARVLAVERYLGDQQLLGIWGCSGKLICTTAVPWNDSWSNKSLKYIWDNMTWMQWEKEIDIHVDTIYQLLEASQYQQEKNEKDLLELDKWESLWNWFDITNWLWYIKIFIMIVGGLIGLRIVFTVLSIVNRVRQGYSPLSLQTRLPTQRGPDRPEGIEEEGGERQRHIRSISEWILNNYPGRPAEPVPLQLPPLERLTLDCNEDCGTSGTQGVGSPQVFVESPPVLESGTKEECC

Turning to `COc1ccc(C(=O)/C=C/c2ccc(-c3ccccc3)cc2)cc1CSCC(=O)O`, the half-maximal inhibitory concentration (IC50) (in general, the concentration that inhibits the measured activity by half) was 21.5 µM (active).

For the origin of these results see ChEMBL document CHEMBL1201862, “PubChem BioAssay data set” (2004).
